Experimental data as given in ChEMBL document CHEMBL1201862, “PubChem BioAssay data set” (2004).
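Cultured in 96-well plates, cells were exposed to test compound for 48 hours across five concentrations. Abbreviation: GI50, concentration required for 50% inhibition of growth.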 Activity calls are given as the source filed them. No stated cut-off is given here; in the data, active = GI50 up to about 1.1 µM and inactive = higher.

Experiments:
Test in all cases: growth of human tumour cells (NCI), 48 h
[1] = system: 786-0
[2] = system: A549
[3] = system: ACHN
[4] = system: BT-549
[5] = system: CAKI-1
[6] = system: CCRF-CEM
[7] = system: COLO 205
[8] = system: DU-145
[9] = system: EKVX
[10] = system: HCT-116
[11] = system: HCT-15
[12] = system: HL-60
[13] = system: HOP-62
[14] = system: HOP-92
[15] = system: HT-29
[16] = system: Hs-578T
[17] = system: K562
[18] = system: KM12
[19] = system: LOX IMVI
[20] = system: M14
[21] = system: MCF7
[22] = system: MDA-MB-231
[23] = system: MDA-MB-435
[24] = system: MDA-N
[25] = system: Malme-3M
[26] = system: NCI-H23
[27] = system: NCI-H460
[28] = system: NCI/ADR-RES
[29] = system: OVCAR-3
[30] = system: OVCAR-4
[31] = system: OVCAR-5
[32] = system: OVCAR-8
[33] = system: PC-3
[34] = system: RPMI-8226
[35] = system: SF-268
[36] = system: SF-295
[37] = system: SF-539
[38] = system: SK-MEL-28
[39] = system: SK-MEL-5
[40] = system: SK-OV-3
[41] = system: SN12C
[42] = system: SNB-19
[43] = system: SR
[44] = system: SW-620
[45] = system: T47D
[46] = system: TK-10
[47] = system: U-251
[48] = system: UACC-257
[49] = system: UACC-62
[50] = system: UO-31
[51] = system: A498
[52] = system: HCC 2998
[53] = system: IGROV-1
[54] = system: MOLT-4
[55] = system: NCI-H226
[56] = system: NCI-H522
[57] = system: RXF 393
[58] = system: SK-MEL-2
[59] = system: SNB-75

CC#C[C@]1(O)CCC2[C@@H]3CCC4=CC(=O)CCC4=C3[C@@H](c3ccc(N(C)C)cc3)C[C@@]21C (stereo partly drawn)
GI50 [1]: 15.2 µM (inactive)
GI50 [2]: 10.2 µM (inactive)
GI50 [3]: 18.7 µM (inactive)
GI50 [4]: 16.6 µM (inactive)
GI50 [5]: 5.73 µM (inactive)
GI50 [6]: 9.75 µM (inactive)
GI50 [7]: 11.5 µM (inactive)
GI50 [8]: 22.1 µM (inactive)
GI50 [9]: 13.2 µM (inactive)
GI50 [10]: 15 µM (inactive)
GI50 [11]: 12.3 µM
GI50 [12]: 16 µM (inactive)
GI50 [13]: 20 µM (inactive)
GI50 [14]: 1.43 µM (inactive)
GI50 [15]: 12.9 µM (inactive)
GI50 [16]: 13 µM (inactive)
GI50 [17]: 20.9 µM (inactive)
GI50 [18]: 15.7 µM (inactive)
GI50 [19]: 16 µM (inactive)
GI50 [20]: 13.8 µM (inactive)
GI50 [21]: 5.27 µM (inactive)
GI50 [22]: 8.79 µM (inactive)
GI50 [23]: 12.2 µM (inactive)
GI50 [24]: 11.8 µM (inactive)
GI50 [25]: 14.6 µM (inactive)
GI50 [26]: 21.4 µM (inactive)
GI50 [27]: 9.86 µM (inactive)
GI50 [28]: 11.5 µM (inactive)
GI50 [29]: 8.28 µM (inactive)
GI50 [30]: 6.37 µM (inactive)
GI50 [31]: 22.7 µM (inactive)
GI50 [32]: 26.5 µM (inactive)
GI50 [33]: 21.7 µM (inactive)
GI50 [34]: 2.02 µM (inactive)
GI50 [35]: 6.85 µM (inactive)
GI50 [36]: 10.7 µM (inactive)
GI50 [37]: 12.6 µM (inactive)
GI50 [38]: 14.4 µM (inactive)
GI50 [39]: 10.9 µM (inactive)
GI50 [40]: 18.3 µM (inactive)
GI50 [41]: 21.8 µM (inactive)
GI50 [42]: 35 µM (inactive)
GI50 [43]: 14.1 µM (inactive)
GI50 [44]: 13.3 µM (inactive)
GI50 [45]: 6.84 µM (inactive)
GI50 [46]: 11.9 µM (inactive)
GI50 [47]: 12.5 µM (inactive)
GI50 [48]: 13.2 µM (inactive)
GI50 [49]: 3.36 µM (inactive)
GI50 [50]: 8.2 µM (inactive)

C#CCNCC(=O)O
GI50 [1]: > 100 µM (inactive)
GI50 [51]: > 100 µM (inactive)
GI50 [2]: > 100 µM (inactive)
GI50 [3]: > 100 µM (inactive)
GI50 [4]: > 100 µM (inactive)
GI50 [5]: > 100 µM (inactive)
GI50 [6]: > 100 µM (inactive)
GI50 [7]: > 100 µM (inactive)
GI50 [8]: > 100 µM (inactive)
GI50 [9]: > 100 µM (inactive)
GI50 [52]: > 100 µM (inactive)
GI50 [10]: > 100 µM (inactive)
GI50 [11]: > 100 µM
GI50 [13]: > 100 µM (inactive)
GI50 [14]: > 100 µM (inactive)
GI50 [15]: > 100 µM (inactive)
GI50 [16]: > 100 µM (inactive)
GI50 [53]: > 100 µM (inactive)
GI50 [18]: > 100 µM (inactive)
GI50 [20]: > 100 µM (inactive)
GI50 [21]: > 100 µM (inactive)
GI50 [22]: > 100 µM (inactive)
GI50 [23]: > 100 µM (inactive)
GI50 [24]: > 100 µM (inactive)
GI50 [54]: > 100 µM (inactive)
GI50 [25]: > 100 µM (inactive)
GI50 [55]: > 100 µM (inactive)
GI50 [26]: > 100 µM (inactive)
GI50 [56]: > 100 µM (inactive)
GI50 [28]: > 100 µM (inactive)
GI50 [29]: > 100 µM (inactive)
GI50 [30]: > 100 µM (inactive)
GI50 [31]: > 100 µM (inactive)
GI50 [32]: > 100 µM (inactive)
GI50 [33]: > 100 µM (inactive)
GI50 [34]: > 100 µM (inactive)
GI50 [57]: > 100 µM (inactive)
GI50 [35]: > 100 µM (inactive)
GI50 [36]: > 100 µM (inactive)
GI50 [37]: > 100 µM (inactive)
GI50 [38]: > 100 µM (inactive)
GI50 [58]: > 100 µM (inactive)
GI50 [39]: > 100 µM (inactive)
GI50 [40]: > 100 µM (inactive)
GI50 [42]: > 100 µM (inactive)
GI50 [44]: > 100 µM (inactive)
GI50 [45]: > 100 µM (inactive)
GI50 [46]: > 100 µM (inactive)
GI50 [47]: > 100 µM (inactive)
GI50 [48]: > 100 µM (inactive)
GI50 [49]: > 100 µM (inactive)
GI50 [50]: > 100 µM (inactive)

CC(=O)C1=C(C)N2C(=NC3=C(CCc4ccccc43)C2c2cccc(Br)c2)S1 (stereo not drawn)
GI50 [1]: > 100 µM (inactive)
GI50 [51]: > 100 µM (inactive)
GI50 [2]: > 100 µM (inactive)
GI50 [3]: > 100 µM (inactive)
GI50 [4]: > 100 µM (inactive)
GI50 [6]: 69.7 µM (inactive)
GI50 [7]: 88.1 µM (inactive)
GI50 [8]: > 100 µM (inactive)
GI50 [9]: 11.4 µM (inactive)
GI50 [52]: 72.9 µM (inactive)
GI50 [10]: 30.8 µM (inactive)
GI50 [11]: 74.8 µM
GI50 [12]: 25.8 µM (inactive)
GI50 [13]: > 100 µM (inactive)
GI50 [14]: > 100 µM (inactive)
GI50 [15]: 22.1 µM (inactive)
GI50 [16]: 67.1 µM (inactive)
GI50 [53]: 48.2 µM (inactive)
GI50 [18]: 49.7 µM (inactive)
GI50 [19]: 76.4 µM (inactive)
GI50 [20]: > 100 µM (inactive)
GI50 [21]: > 100 µM (inactive)
GI50 [22]: > 100 µM (inactive)
GI50 [23]: > 100 µM (inactive)
GI50 [24]: > 100 µM (inactive)
GI50 [55]: 79.6 µM (inactive)
GI50 [26]: 99.1 µM (inactive)
GI50 [28]: > 100 µM (inactive)
GI50 [29]: 93.1 µM (inactive)
GI50 [30]: > 100 µM (inactive)
GI50 [31]: > 100 µM (inactive)
GI50 [32]: > 100 µM (inactive)
GI50 [33]: > 100 µM (inactive)
GI50 [34]: 16.8 µM (inactive)
GI50 [57]: > 100 µM (inactive)
GI50 [35]: > 100 µM (inactive)
GI50 [36]: > 100 µM (inactive)
GI50 [37]: > 100 µM (inactive)
GI50 [38]: > 100 µM (inactive)
GI50 [58]: > 100 µM (inactive)
GI50 [39]: 41.3 µM (inactive)
GI50 [40]: > 100 µM (inactive)
GI50 [41]: > 100 µM (inactive)
GI50 [42]: > 100 µM (inactive)
GI50 [59]: > 100 µM (inactive)
GI50 [44]: > 100 µM (inactive)
GI50 [45]: > 100 µM (inactive)
GI50 [47]: > 100 µM (inactive)
GI50 [48]: 84.1 µM (inactive)
GI50 [49]: 68.2 µM (inactive)
GI50 [50]: > 100 µM (inactive)
